The record followed here is patent publication EP0314302A2, “Herbicidal o-carbomethoxy-sulfonylureas” (E.I. DU PONT DE NEMOURS AND COMPANY, priority 1987, dated 1989).

The subject of one series is Agropyron repens. Briefly: Test 2 perennial weeds from rhizomes. In kind it is in vivo. The following applies: 0.5% v/v non-ionic surfactant, scale 0-100. As for the experimental part:
(§1) Rhizomes of Agropyron repens and Cirsium arvense were planted in 17.5-cm plastic pots and grown in the greenhouse for 5 months prior to herbicide application. Plants were 24 to 35 cm tall and releasing lateral buds at the time of treatment. Compound I was diluted in water containing 0.5% v/v non-ionic surfactant and applied to the plants. The degree of weed control was visually rated 36 days after application of the herbicide. Control ratings were based upon comparison to an untreated control using a scale of 0 to 100 where 0 indicated no effect and […] represented death of all foliar portions with no regrowth apparent.

In the next series the test system is Cirsium arvense. Briefly: Test 2 perennial weeds from rhizomes. The settings on record: 0.5% v/v non-ionic surfactant, scale 0-100. The format is in vivo. As for the experimental part: as §1
The subject of the next series is Kochia. Briefly: Test 7 postemergence. The format is in vivo, Kochia spp. The following applies: scale 0-100. As for the experimental part: (§2) Individual 11.4-cm plastic pots filled with planting medium were seeded with rape, wild radish (Raphanus raphanistruna). tansy mustard (Descurainia pinnata), ball mustard (Neslia paniculata), black mustard (Brassica nigra), yellow mustard, brown mustard, lentils, safflower, flax, sunflower, peanut, vetch, alfalfa, field bean, pea, violet (Viola spp), Kochia (Kochia spp), Russian thistle (Salsola spp), Matricaria spp, groundsel (Senecio spp), shepherdspurse (Capsella bursa-pastoris), nightshade (Solanum spp), sowthistle (Sonchus spp), sugar beet, wheat, "Bonanza" barley and "Morex" barley, Kentucky bluegrass (Poa pratensis), red clover (Trifolium pratense), dandelion (Taraxacum spp) and buckhorn plantain (Plantago lanceolata).
(§3) Plants were treated postemergence with the compound formulated with a non-phytotoxic carrier. Plants were visually rated 18 days after treatment (DAT). Response ratings were based on the scale of 0 to 100 where 0 = no effect, 20 = minimal injury and 100 = complete control.

The subject of a further series is Sheperdspurse. The series can be described thus: Test 7 postemergence. In kind it is in vivo, Capsella bursa-pastoris. The following applies: scale 0-100. Here is the method:
as §2, §3

Another series deals with Sowthistle. The series can be described thus: Test 7 postemergence. In kind it is in vivo, Sonchus spp. The following applies: scale 0-100. As for the experimental part:
as §2, §3

The test system of another series is Large Crabgrass. The series can be described thus: Test 9 postemergence. In kind it is in vivo, Digitaria sanguinalis. The following applies: 16 g/ha, scale 0-100. As for the experimental part:
Plastic windowsill pots containing planting medium were seeded with bahiagrass, bindweed (Convolvulus spp), guinea grass (Panicum maximum), large crabgrass (Digitaria sanguinalis) and pigweed (Amaranthus spp). Individual 15-cm plastic pots contained sandbur (Cenchrus echinatus), Mikania cordata, Boston fern (Nephrolepis exalata), quackgrass (Agropyron repens), elephantgrass (Pennisetum purpureum) and sowthistle (Sonchus spp) plants.
Plants were treated postemergence with Compound I formulated in a non-phytotoxic solvent. Plants were visually rated 22 days after treatment (DAT). Injury and weed control ratings were based on the scale of 0 to 100 where 0 = no effect, 20 = minimal control and 100 = complete control.

A further series concerns Annual ryegrass. The series can be described thus: Test 10 postemergence safety to crops and weed control. The format is in vivo, Lolium multiflorum. The settings on record: 16 g/ha, scale 0-100. Here is the method:
The object of these tests was to evaluate the compound of this invention for postemergence safety to crops and weed control. Seedling and budded Macedine grapes were grown in 11.4-cm pots. Flax, green foxtail (Setaria viridis), "Morex" barley, wild oats (Avena fatua), "Era" wheat, annual ryegrass (Lolium multiflorum), wild radish (Raphanus raphanistrum), rape, sunflower, chickweed (Stellaria media) and wild buckwheat (Polygonum convolvulus) were seeded in windowsill pots.
The plants were sprayed postemergence with Compound I in a non-phytotoxic solvent. Plants were visually rated 15 and 27 days after treatment (DAT). Injury and weed control ratings were based on the scale of 0 to 100 where 0 = no effect, 20 minimal control and 100 = complete control.

For a further series, the system named is Sandbur. The series can be described thus: Test 11 citrus pots, preemergence to the weeds. In kind it is in vivo, Cenchrus echinatus. The following applies: Preemergence 32 g/ha; 0.25% X-77 surfactant; scale 0-100. Here is the method: (§4) Budded citrus seedlings were planted in 30-liter plastic pots which were also seeded with sandbur, guineagrass, narrowleaf panicum, common ragweed, yellow nutsedge, purple nutsedge and bindweed. Compound I was applied preemergence and postemergence to the weeds. Treatments were sprayed to simulate the trunk-to-trunk herbicide application method used in some citrus groves. The compound was also applied postemergence to weeds grown in windowsill flats. The flats were filled with planting medium and seeded with morningglory (Ipomoea spp.). purple nutsedge (Cyperus rotundus), pigweed (Amaranthus spp.), bindweed (Convolvulus spp.), narrowleaf panicum (Panicum maximum), common ragweed (Ambrosia artemisiifolia), sandbur (Cenchrus echinatus), itchgrass (Rottboellia exaltata), johnsongrass (Sorghum halepense), guineagrass (Panicum maximum), smooth crabgrass (Digitaria ischaemum), broadleaf signalgrass (Brachiaria platyphylla), bermudagrass (Cynodon dactylon), goosegrass (Eleusine indica), large crabgrass (Digitaria sanguinalis) and yellow nutsedge (Cyperus esculentus).
(§5) The compound was formulated and sprayed with 0.25% X-77 surfactant in water. Plants were visually rated 21 and 29 days after treatment and compared with appropriate controls. Injury ratings were based on the scale of 0 to 100, where 0 indicates no effect, 20 indicates minimum effect and 100 indicates complete control. […]

The test system of a further series is Citrus. Briefly: Test 11 citrus pots, postemergence to the weeds. The settings on record: Postemergence 32 g/ha, 0.25% X-77 surfactant, scale 0-100. In kind it is in vivo. Here is the method:
as §4, §5

The subject of another series is Smooth crabgrass. The series can be described thus: Test 11 windowsill flats, postemergence. The format is in vivo, Digitaria ischaemum. The settings on record: Postemergence 32 g/ha, 0.25% X-77 surfactant, scale 0-100. As for the experimental part: as §4, §5
Another series concerns Loblolly pine. The series can be described thus: Test 13 conifer seedlings, postemergence. The settings on record: scale 0-100. The format is in vivo. From the text:
Conifer species (Loblolly pine) seedlings were transplanted into 15-cm plastic pots filled with planting medium. Compound I was applied postemergence to the loblolly pine seedlings. The compound was formulated in a non-phytotoxic spray solvent. Plans were visually rated 240 days after treatment (DAT) and compared with appropriate controls. Injury ratings are based on the scale of 0 to 100, where 0 indicates no effect, 20 indicates minimal injury and 100 indicates complete kill.

In the case of `COC(=O)c1cccnc1S(=O)(=O)NC(=O)Nc1nc(OC)cc(OC)n1` [Compound I, 2-[[(4,6-dimethoxypyrimidin-2-yl)aminocarbonyl]aminosulfonyl]-3-pyridinecarboxylic acid, methyl ester], the “Control ratings 36 DAT” value in the series on Agropyron repens (16 g/ha) stood at 85; in the series on Agropyron repens (32 g/ha) it was 90; with Agropyron repens (64 g/ha), 95; in the series on Cirsium arvense (16 g/ha), 40; with Cirsium arvense (32 g/ha) it was 50; in the series with Cirsium arvense (64 g/ha), 50. In addition, the “Plant Injury Rating 18 DAT” value with Kochia (16 g/ha), with Kochia (32 g/ha), in the series on Sheperdspurse (16 g/ha), with Sheperdspurse (32 g/ha), in the series with Sowthistle (16 g/ha) and with Sowthistle (32 g/ha) was 100 throughout. Besides, the “Plant Injury Rating 22 DAT” value in the series with Large Crabgrass was found to be 60. For the same compound, the “Plant Injury Rating 15 DAT” value with Annual ryegrass stood at 100. The Injury ratings with Sandbur is 100; in the series on Citrus, 0; in the series with Smooth crabgrass, 100. The “Plant Injury Rating 240 DAT” value with Loblolly pine (8 g/ha), in the series with Loblolly pine (16 g/ha), in the series with Loblolly pine (32 g/ha), with Loblolly pine (64 g/ha) and in the series with Loblolly pine (125 g/ha) was 0 throughout.
